Among the data in PubChem BioAssay AID1259407 (Chemical Carcinogenesis Research Information System (CCRIS), 2018) are mutagenic call values, retold here.

This data set has as its system CCRIS mutagenicity, Ames/micronucleus/aberration tests. Put plainly: CCRIS mutagenicity studies.
[1] abbreviates: Test System: AMES SALMONELLA TYPHIMURIUM, Strain/Indicator: TA98, Metabolic Activation: NONE, Method: PREINCUBATION
Where [2] appears, read: Test System: AMES SALMONELLA TYPHIMURIUM, Strain/Indicator: TA100, Metabolic Activation: NONE, Method: STANDARD PLATE.
The mark [3] stands for this setting: Test System: AMES SALMONELLA TYPHIMURIUM, Strain/Indicator: TA1535, Metabolic Activation: NONE, Method: PREINCUBATION
[4] abbreviates: Test System: AMES SALMONELLA TYPHIMURIUM, Strain/Indicator: TA98, Metabolic Activation: RAT, LIVER, S-9, AROCLOR 1254, Method: PREINCUBATION
[5] abbreviates: Test System: AMES SALMONELLA TYPHIMURIUM, Strain/Indicator: TA100, Metabolic Activation: NONE, Method: PREINCUBATION
Where [6] appears, read: Test System: AMES SALMONELLA TYPHIMURIUM, Strain/Indicator: TA1537, Metabolic Activation: NONE, Method: STANDARD PLATE.

The structures appear in SMILES notation. Active and inactive are the calls of the source. How the calls were made is not given here.

`O=NN(CCO)CCO`: the mutagenic call is, setting by setting: (Test System: AMES SALMONELLA TYPHIMURIUM, Strain/Indicator: TA97, Metabolic Activation: HAMSTER, LIVER, S-9, AROCLOR 1254 (10%), Method: PREINCUBATION) “active; positive”; (Test System: AMES SALMONELLA TYPHIMURIUM, Strain/Indicator: TA97, Metabolic Activation: NONE, Method: PREINCUBATION) “active; positive”; (Test System: AMES SALMONELLA TYPHIMURIUM, Strain/Indicator: TA97, Metabolic Activation: RAT, LIVER, S-9, AROCLOR 1254 (10%), Method: PREINCUBATION) “active; positive”; (Test System: AMES SALMONELLA TYPHIMURIUM, Strain/Indicator: TA98, Metabolic Activation: HAMSTER, LIVER, S-9, AROCLOR 1254 (10%), Method: PREINCUBATION) “active; positive”; under setting [1], “active; positive”; (Test System: AMES SALMONELLA TYPHIMURIUM, Strain/Indicator: TA98, Metabolic Activation: RAT, LIVER, S-9, AROCLOR 1254 (10%), Method: PREINCUBATION) “active; positive”. Also, the mutagenic call (Test System: AMES SALMONELLA TYPHIMURIUM, Strain/Indicator: TA100, Metabolic Activation: HAMSTER, LIVER, S-9, AROCLOR 1254 (10%), Method: PREINCUBATION) was “active; positive”; the mutagenic call under setting [2] is “active; positive”; the mutagenic call (Test System: AMES SALMONELLA TYPHIMURIUM, Strain/Indicator: TA100, Metabolic Activation: RABBIT, LIVER, S-9, Method: STANDARD PLATE) was “inactive; negative”; the mutagenic call (Test System: AMES SALMONELLA TYPHIMURIUM, Strain/Indicator: TA100, Metabolic Activation: RABBIT, LUNG, S-9, Method: STANDARD PLATE) was “inactive; negative”; the mutagenic call (Test System: AMES SALMONELLA TYPHIMURIUM, Strain/Indicator: TA100, Metabolic Activation: RABBIT, NASAL, S-9, Method: STANDARD PLATE) was “active; positive”; the mutagenic call (Test System: AMES SALMONELLA TYPHIMURIUM, Strain/Indicator: TA100, Metabolic Activation: RAT, LIVER, S-9, AROCLOR 1254 (10%), Method: PREINCUBATION) is “active; positive”. Further, the mutagenic call (Test System: AMES SALMONELLA TYPHIMURIUM, Strain/Indicator: TA100, Metabolic Activation: RAT, LIVER, S-9, Method: STANDARD PLATE) is “inactive; negative”; the mutagenic call (Test System: AMES SALMONELLA TYPHIMURIUM, Strain/Indicator: TA100, Metabolic Activation: RAT, LUNG, S-9, Method: STANDARD PLATE) was “active; positive”; the mutagenic call (Test System: AMES SALMONELLA TYPHIMURIUM, Strain/Indicator: TA100, Metabolic Activation: RAT, NASAL, S-9, Method: STANDARD PLATE) is “active; positive”; the mutagenic call (Test System: AMES SALMONELLA TYPHIMURIUM, Strain/Indicator: TA1535, Metabolic Activation: HAMSTER, LIVER, S-9, AROCLOR 1254 (10%), Method: PREINCUBATION) is “active; positive”; the mutagenic call under setting [3] is “inactive; negative”; the mutagenic call (Test System: AMES SALMONELLA TYPHIMURIUM, Strain/Indicator: TA1535, Metabolic Activation: RAT, LIVER, S-9, AROCLOR 1254 (10%), Method: PREINCUBATION) is “active; positive”.

Take `CCn1c(N)nc2c3nc(C)cnc3ccc21`: the mutagenic call under setting [4] is “active; positive”.

Turning to `Nc1cnc2ccccc2c1`, the mutagenic call under setting [1] is “inactive; negative”; the mutagenic call (Test System: AMES SALMONELLA TYPHIMURIUM, Strain/Indicator: TA98, Metabolic Activation: RAT, LIVER, S-9, KANECHLOR 500 OR PHENOBARBITAL AND BETA-NAPHTHOFLAVONE, Method: PREINCUBATION) is “active; positive”; the mutagenic call under setting [5] is “inactive; negative”; the mutagenic call (Test System: AMES SALMONELLA TYPHIMURIUM, Strain/Indicator: TA100, Metabolic Activation: RAT, LIVER, S-9, KANECHLOR 500 OR PHENOBARBITAL AND BETA-NAPHTHOFLAVONE, Method: PREINCUBATION) is “active; positive”.

On to `N#CSCSC#N`, for which the mutagenic call is, setting by setting: (Test System: AMES SALMONELLA TYPHIMURIUM, Strain/Indicator: TA98, Metabolic Activation: HAMSTER, LIVER, S-9, AROCLOR 1254, Method: STANDARD PLATE) “inactive; negative”; (Test System: AMES SALMONELLA TYPHIMURIUM, Strain/Indicator: TA98, Metabolic Activation: NONE, Method: STANDARD PLATE) “inactive; negative”; (Test System: AMES SALMONELLA TYPHIMURIUM, Strain/Indicator: TA98, Metabolic Activation: RAT, LIVER, S-9, AROCLOR 1254, Method: STANDARD PLATE) “inactive; negative”; (Test System: AMES SALMONELLA TYPHIMURIUM, Strain/Indicator: TA100, Metabolic Activation: HAMSTER, LIVER, S-9, AROCLOR 1254, Method: STANDARD PLATE) “inactive; negative”; under setting [2], “inactive; negative”; (Test System: AMES SALMONELLA TYPHIMURIUM, Strain/Indicator: TA100, Metabolic Activation: RAT, LIVER, S-9, AROCLOR 1254, Method: STANDARD PLATE) “inactive; negative”. The mutagenic call runs as follows: (Test System: AMES SALMONELLA TYPHIMURIUM, Strain/Indicator: TA1535, Metabolic Activation: HAMSTER, LIVER, S-9, AROCLOR 1254, Method: STANDARD PLATE) “inactive; negative”; (Test System: AMES SALMONELLA TYPHIMURIUM, Strain/Indicator: TA1535, Metabolic Activation: NONE, Method: STANDARD PLATE) “inactive; negative”; (Test System: AMES SALMONELLA TYPHIMURIUM, Strain/Indicator: TA1535, Metabolic Activation: RAT, LIVER, S-9, AROCLOR 1254, Method: STANDARD PLATE) “inactive; negative”; (Test System: AMES SALMONELLA TYPHIMURIUM, Strain/Indicator: TA1537, Metabolic Activation: HAMSTER, LIVER, S-9, AROCLOR 1254, Method: STANDARD PLATE) “inactive; negative”; under setting [6], “inactive; negative”; (Test System: AMES SALMONELLA TYPHIMURIUM, Strain/Indicator: TA1537, Metabolic Activation: RAT, LIVER, S-9, AROCLOR 1254, Method: STANDARD PLATE) “inactive; negative”. Further, the mutagenic call (Test System: MOUSE LYMPHOMA, Strain/Indicator: L5178Y (TK+/TK-), Metabolic Activation: RAT, LIVER, S-9, AROCLOR 1254, Method: SUSPENSION/PLATE) was “inactive; negative. reevaluation of results: negative” and the mutagenic call (Test System: Mouse lymphoma, Strain/Indicator: L5178Y (tk+/tk-), Metabolic Activation: None, Method: Suspension/plate) is “inactive; negative”.

For the molecule `CN(C)CCNC(=O)c1cccn2cc(-c3ccccc3)nc12`, the mutagenic call under setting [6] was “active; positive”.

For the molecule `Cc1cc2c(C)c3ccccc3nc2c2ccccc12`, the mutagenic call is “active; positive” (Test System: AMES SALMONELLA TYPHIMURIUM, Strain/Indicator: TA97A, Metabolic Activation: NONE, Method: PREINCUBATION); “inactive; negative” under setting [1]; “active; positive” under setting [5]; “active; positive” (Test System: AMES SALMONELLA TYPHIMURIUM, Strain/Indicator: TA102, Metabolic Activation: NONE, Method: PREINCUBATION).

As to `CC(=O)OC1CC(C)OC(C)O1` (stereo not given), the mutagenic call is, setting by setting: (Test System: AMES SALMONELLA TYPHIMURIUM, Strain/Indicator: TA98, Metabolic Activation: HAMSTER, LIVER, S-9, AROCLOR 1254, Method: PREINCUBATION) “inactive; negative”; under setting [1], “inactive; negative”; under setting [4], “inactive; negative”; (Test System: AMES SALMONELLA TYPHIMURIUM, Strain/Indicator: TA100, Metabolic Activation: HAMSTER, LIVER, S-9, AROCLOR 1254, Method: PREINCUBATION) “active; positive”; under setting [5], “inactive; negative”; (Test System: AMES SALMONELLA TYPHIMURIUM, Strain/Indicator: TA100, Metabolic Activation: RAT, LIVER, S-9, AROCLOR 1254, Method: PREINCUBATION) “active; positive”. In addition, the mutagenic call by setting is: (Test System: AMES SALMONELLA TYPHIMURIUM, Strain/Indicator: TA1535, Metabolic Activation: HAMSTER, LIVER, S-9, AROCLOR 1254, Method: PREINCUBATION) “inactive; negative”; under setting [3], “inactive; negative”; (Test System: AMES SALMONELLA TYPHIMURIUM, Strain/Indicator: TA1535, Metabolic Activation: RAT, LIVER, S-9, AROCLOR 1254, Method: PREINCUBATION) “inactive; negative”; (Test System: AMES SALMONELLA TYPHIMURIUM, Strain/Indicator: TA1537, Metabolic Activation: HAMSTER, LIVER, S-9, AROCLOR 1254, Method: PREINCUBATION) “inactive; negative”; (Test System: AMES SALMONELLA TYPHIMURIUM, Strain/Indicator: TA1537, Metabolic Activation: NONE, Method: PREINCUBATION) “inactive; negative”; (Test System: AMES SALMONELLA TYPHIMURIUM, Strain/Indicator: TA1537, Metabolic Activation: RAT, LIVER, S-9, AROCLOR 1254, Method: PREINCUBATION) “inactive; negative”.

Turning to `Cc1cc2c(c3ccc4ccccc4c13)[C@H]1O[C@H]1[C@@H](O)[C@@H]2O`, under setting [5], the mutagenic call was “inactive; negative”.
